Tests used:
[1] = Pharmacokinetic test in rats, injection (i.v.); assay type: in vivo; details: SD rats, 1 mg/kg
Procedure: The drug concentration in the plasma of the test animals (SD rats) at different time points after injection (i.v.) of the test compounds was determined by using an LC/MS/MS method. The pharmacokinetic performance of the compound of formula I in rats was studied and their pharmacokinetic profile was evaluated.
8 SD rats, half male and half female, divided into 2 groups, purchased from Vital River Laboratory Animal Technology Co., Ltd.
A certain amount of the compound was weighed out, and 5% of DMSO, 5% of Tween 80, and 90% of normal saline were added to obtain a colorless and clear solution.
The rats were subjected to administration by injection with a dose of 1 mg/kg and an administration volume of 5 mL/kg.
The test compound was administered by injection to the rats, and 0.2 mL of blood was collected from the orbit before administration and 5 min, 0.25 h, 0.5 h, 1.0 h, 2.0 h, 4.0 h, 8.0 h, 11.0 h, and 24.0 h after administration. […]
The content of the test compounds in the rat plasma after administration by injection of different concentrations of the compound was determined: 25 μL of rat plasma at each time point after administration was mixed with 50 μL of internal standard solution (camptothecin, 100 ng/mL) and 200 μL of acetonitrile, and the mixture was vortexed for 5 min and centrifuged for 10 min at 3700 rpm. […]

AKT2 = target: T1, AKT2 (Homo sapiens, UniProt P31751); test: AKT2 kinase activity inhibition (KinEASE-STK S3 HTRF kit); assay type: biochemical
T1 construct: purchased Invitrogen PV3184
T1 sequence (P31751 whole entry): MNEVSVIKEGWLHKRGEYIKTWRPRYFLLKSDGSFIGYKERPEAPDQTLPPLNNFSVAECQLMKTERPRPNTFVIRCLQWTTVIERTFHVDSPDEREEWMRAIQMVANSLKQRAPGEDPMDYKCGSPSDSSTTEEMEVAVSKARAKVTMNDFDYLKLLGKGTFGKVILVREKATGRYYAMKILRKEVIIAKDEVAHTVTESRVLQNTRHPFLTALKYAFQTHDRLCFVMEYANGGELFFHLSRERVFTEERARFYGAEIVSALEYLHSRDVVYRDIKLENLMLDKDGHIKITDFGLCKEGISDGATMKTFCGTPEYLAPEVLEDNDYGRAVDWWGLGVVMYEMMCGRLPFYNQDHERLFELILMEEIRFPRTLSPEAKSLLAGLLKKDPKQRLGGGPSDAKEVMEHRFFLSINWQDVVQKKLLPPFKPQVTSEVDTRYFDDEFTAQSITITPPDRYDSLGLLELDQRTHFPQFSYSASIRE
Procedure: (§1) The mean inhibition of kinase and the IC50 value were measured using a NovoStar microplate reader (BMG, Germany).
(§2) The following methods were used to determine the inhibitory effect of the compound of formula I on the kinase activity of AKT1/AKT2/AKT3 in vitro. The experimental method is briefly described as follows:
(§3) The enzyme activity of AKT1 (Invitrogen, P2999), AKT2 (Invitrogen, PV3184), and AKT3 (Invitrogen, PV3185) was determined using a KinEASE-STK S3 kit (Cisbio, 62ST3PEC). Test compounds were each first subjected to 3-fold gradient dilution with DMSO from 500 μM to obtain a total of 11 concentrations. The 5× buffer in the kit was diluted to 1× buffer, and DTT (Sigma, 43816-10ML) and MgCl2 were added to make the buffer contain 1 mM DTT and 5 mM MgCl2. Compounds were each subjected to 20-fold dilution with 1× buffer for later use. […] The mixture was incubated at room temperature for 60 min, values of signals emitted at […] and 620 nm after excitation at 337 nm were measured by using an HTRF module of a multi-functional microplate detector (BMG Labtech, PHERAstar FS), and the ratio of the readings was multiplied by 10,000 to obtain a ratio value. Dose-response curves were drawn according to the concentration of the compounds and the ratio values by using Graphpad Prism software, and the IC50 values for the inhibitory activity of the compounds were calculated.

AKT3 = target: T2, AKT3 (Homo sapiens, UniProt Q9Y243); test: AKT3 kinase activity inhibition (KinEASE-STK S3 HTRF kit); assay type: biochemical
T2 construct: purchased Invitrogen PV3185
T2 sequence (Q9Y243 whole entry): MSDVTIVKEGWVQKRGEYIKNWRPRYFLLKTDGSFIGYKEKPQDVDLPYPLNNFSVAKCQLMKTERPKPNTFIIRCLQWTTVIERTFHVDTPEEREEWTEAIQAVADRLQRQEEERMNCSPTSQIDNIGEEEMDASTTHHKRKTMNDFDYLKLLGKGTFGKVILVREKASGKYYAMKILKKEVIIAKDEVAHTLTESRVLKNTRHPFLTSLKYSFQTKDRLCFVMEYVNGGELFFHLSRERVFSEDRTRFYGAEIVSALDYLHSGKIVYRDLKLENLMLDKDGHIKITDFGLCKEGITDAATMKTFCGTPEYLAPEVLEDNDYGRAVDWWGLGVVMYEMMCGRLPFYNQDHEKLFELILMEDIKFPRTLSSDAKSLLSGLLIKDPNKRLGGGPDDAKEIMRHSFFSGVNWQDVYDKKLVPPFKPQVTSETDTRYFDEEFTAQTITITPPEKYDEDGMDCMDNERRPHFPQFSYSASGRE
Procedure: as §1, §2, §3

[2] = Pharmacokinetic test in nude mice, intragastric administration; assay type: in vivo, Balb/c nude mice; details: i.g., 50 or 100 mg/kg
Procedure: The drug concentration in the plasma of the test animals (Balb/c nude mice) at different time points after intragastric administration (i.g.) of the test compounds was determined by using an LC/MS/MS method. The pharmacokinetic performance of the compound of formula I in nude mice was studied and their pharmacokinetic profile was evaluated.
18 Balb/c nude mice, female, divided into 2 groups and purchased from Vital River Laboratory Animal Technology Co., Ltd.
A certain amount of compound was weighed out, and 99.8% (0.5% methylcellulose) was added into the compound, and then 0.2% Tween was added. The mixture was subjected to ultrasonic treatment to obtain a suspension, which was stirred for administration.
The nude mice were subjected to intragastric administration with a dose of 50 mg/kg or 100 mg/kg and an administration volume of 0.2 mL/10 g. […]
The content of the test compounds in the nude mice plasma after intragastric administration of different concentrations of the compound was determined: 20 μL of nude mouse plasma at each time point after administration was mixed with 50 μL of internal standard solution (camptothecin, 100 ng/mL) and 200 μL of acetonitrile, and the mixture was vortexed for 5 min and centrifuged for 10 min at 3700 rpm. […]

AKT1 = target: T3, AKT1 (Homo sapiens, UniProt P31749); test: AKT1 kinase activity inhibition (KinEASE-STK S3 HTRF kit); assay type: biochemical
T3 construct: purchased Invitrogen P2999
T3 sequence (P31749 whole entry): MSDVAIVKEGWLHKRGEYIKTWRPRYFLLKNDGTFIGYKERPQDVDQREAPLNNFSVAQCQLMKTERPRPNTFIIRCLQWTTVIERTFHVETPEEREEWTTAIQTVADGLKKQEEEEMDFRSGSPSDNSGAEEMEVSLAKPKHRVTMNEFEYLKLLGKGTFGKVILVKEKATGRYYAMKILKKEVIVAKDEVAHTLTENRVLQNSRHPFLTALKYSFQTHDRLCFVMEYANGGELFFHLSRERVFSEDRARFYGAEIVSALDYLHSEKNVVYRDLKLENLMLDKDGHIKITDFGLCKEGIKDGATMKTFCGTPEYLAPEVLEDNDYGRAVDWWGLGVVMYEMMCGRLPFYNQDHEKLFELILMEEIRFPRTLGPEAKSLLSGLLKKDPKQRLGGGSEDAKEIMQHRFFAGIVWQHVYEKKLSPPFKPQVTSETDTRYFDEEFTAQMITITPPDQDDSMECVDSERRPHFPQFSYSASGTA
Procedure: as §1, §2, §3

[3] = Hygroscopicity study (dynamic vapor sorption); assay type: physicochemical; details: DVS, 25° C.
Procedure: DVS is dynamic vapor sorption: The detection was carried out using SMS DVS Advantage at 25° C. with a humidity change of 50%-95%-0%-95%-50% in steps of 10% (the last step was 5%) (the specific range of humidity was subject to the corresponding pattern, and most methods were listed here), and the judgment standard was that dm/dt was not greater than 0.002%.
Using Surface Measurement Systems advantage 2, starting at a humidity of 50% at 25° C., the humidity range was 0%-95%, the step was 10%, the judgment standard was that the mass change dM/dT of each gradient was less than 0.002%, the running time TMAX of each humidity gradient was 360 min, with two cycles, and the specific results are shown in Table 8.

[4] = Long-term/accelerated stability study; assay type: physicochemical
Procedure: The crystal form A of hydrochloride, the crystal form A of methanesulfonate, and the crystal form α of acetate were placed at 25° C./60% RH and 40° C./75% RH to investigate the stability, and the results are shown in Tables 10, 11, and 12 below.

[5] = Stability of crystal form, influencing factor experiment; assay type: physicochemical
Procedure: The crystal form A of hydrochloride, the crystal form A of methanesulfonate, and the crystal form α of the acetate were placed flat and left open. The stability of the samples was investigated under conditions of illumination (4500 Lux), high temperature (40° C., 60° C.), and high humidity (RH 75%, RH 92.5%), and the sampling investigation period was 30 days.

CC(C)NC[C@@H](C(=O)N1C2CCC1CN(c1ncnc3c1C(C)(C)C(=O)N3)C2)c1ccc(Cl)cc1 [Compound of formula I]
pharmacokinetics (conclusion) [1]: good pharmacokinetics | inhibitory effect on AKT2 enzyme (conclusion) (AKT2): good inhibitory effect | inhibitory effect on AKT3 enzyme (conclusion) (AKT3): good inhibitory effect | pharmacokinetic absorption (conclusion) [2]: good pharmacokinetic absorption | inhibitory effect on AKT1 enzyme (conclusion) (AKT1): good inhibitory effect

CC(=O)O.CC(C)NCC(C(=O)N1C2CCC1CN(c1ncnc3c1C(C)(C)C(=O)N3)C2)c1ccc(Cl)cc1 (stereo not drawn) [Crystal form α of acetate]
mass change 0% RH-80.0% RH [3]: 0.50% | mass change 0.0% RH-95.0% RH [3]: 0.66% | Crystal form after hygroscopicity test ([3]; two cycles): Untransformed | Crystal form ([4]; 25° C./60% RH): Untransformed | Purity % 1 month ([4]; 25° C./60% RH): 99.7% | Purity % 2 month ([4]; 25° C./60% RH): 99.7% | Purity % 3 month ([4]; 25° C./60% RH): 99.7% | Purity % 6 month ([4]; 25° C./60% RH): 99.7% | Purity % Onset ([4]; 25° C./60% RH): 99.7% | physical and chemical stability (conclusion) ([4]; 25° C./60 RH and 40° C./75 RH, 6 months): good physical and chemical stability | Crystal form ([4]; 40° C./75% RH): Untransformed | Purity % 1 month ([4]; 40° C./75% RH): 99.7% | Purity % 2 month ([4]; 40° C./75% RH): 99.6% | Purity % 3 month ([4]; 40° C./75% RH): 99.6% | Purity % 6 month ([4]; 40° C./75% RH): 99.5% | Purity % Onset ([4]; 40° C./75% RH): 99.7% | Crystal form ([5]; 40° C., 5 days, open): Untransformed | Purity % ([5]; 40° C., 5 days, open): 99.6% | Crystal form ([5]; 40° C., 10 days, open): Untransformed | Purity % ([5]; 40° C., 10 days, open): 99.6% | Crystal form ([5]; 40° C., 30 days, open): Untransformed | Purity % ([5]; 40° C., 30 days, open): 99.0% | Crystal form ([5]; 60° C., 5 days, open): Untransformed | Purity % ([5]; 60° C., 5 days, open): 99.6% | Crystal form ([5]; 60° C., 10 days, open): Untransformed | Purity % ([5]; 60° C., 10 days, open): 99.5% | Crystal form ([5]; 60° C., 30 days, open): Untransformed | Purity % ([5]; 60° C., 30 days, open): 98.8% | Crystal form ([5]; 75% RH, 5 days, open): Untransformed | Purity % ([5]; 75% RH, 5 days, open): 99.7% | Crystal form ([5]; 75% RH, 10 days, open): Untransformed | Purity % ([5]; 75% RH, 10 days, open): 99.7% | Crystal form ([5]; 75% RH, 30 days, open): Untransformed | Purity % ([5]; 75% RH, 30 days, open): 99.7% | Crystal form ([5]; 92.5% RH, 5 days, open): Untransformed | Purity % ([5]; 92.5% RH, 5 days, open): 99.7% | Crystal form ([5]; 92.5% RH, 10 days, open): Untransformed | Purity % ([5]; 92.5% RH, 10 days, open): 99.7% | Crystal form ([5]; 92.5% RH, 30 days, open): Untransformed | Purity % ([5]; 92.5% RH, 30 days, open): 99.7% | Crystal form ([5]; 4500 Lux, 5 days, open): Untransformed | Purity % ([5]; 4500 Lux, 5 days, open): 99.7% | Crystal form ([5]; 4500 Lux, 10 days, open): Untransformed | Purity % ([5]; 4500 Lux, 10 days, open): 99.7% | Crystal form ([5]; 4500 Lux, 30 days, open): Untransformed | Purity % ([5]; 4500 Lux, 30 days, open): 99.6% | Purity % ([5]; Onset, 0 days): 99.7% | physical and chemical stability (conclusion) ([5]; illumination, 40° C. and 60° C., humidity 75% and 92.5%, 30 days): good physical stability and good chemical stability under high humidity and illumination conditions
